Assay results published in US12077503B2, “Substituted cyclic amides and their use as herbicides” (FMC CORPORATION, priority 2015, dated 2024).

What was measured:
Experiment in all cases: Test C preemergence
Assay type in all cases: in vivo
[1] = tested on: Galium (catchweed bedstraw, Galium aparine); details: for Plant response rating, Galium: scale 0 to 100, 0 no effect, 100 complete control
Summary of the method: (§1)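 Assessment: visual, 13–15 d after treatment, 0 (no effect) to 100 (complete control) relative to controls. Treatment: preemergence to seeds in loam-sand soil, or postemergence to 1- to 4-leaf plants in peat-based medium. Formulation: non-phytotoxic solvent mixture with surfactant.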

[2] = tested on: barnyardgrass (Echinochloa crus-galli); details: for Plant response rating, Barnyardgrass: scale 0 to 100, 0 no effect, 100 complete control
Summary of the method: as §1

[3] = tested on: blackgrass (Alopecurus myosuroides); details: for Plant response rating, Blackgrass: scale 0 to 100, 0 no effect, 100 complete control
Summary of the method: as §1

corn (Zea mays) = details: for Plant response rating, Corn: scale 0 to 100, 0 no effect, 100 complete control
Summary of the method: as §1

[4] = tested on: crabgrass, large (large crabgrass, Digitaria sanguinalis); details: for Plant response rating, Crabgrass, Large: scale 0 to 100, 0 no effect, 100 complete control
Summary of the method: as §1

[5] = tested on: foxtail, giant (giant foxtail, Setaria faberii); details: for Plant response rating, Foxtail, Giant: scale 0 to 100, 0 no effect, 100 complete control
Summary of the method: as §1

[6] = tested on: johnsongrass (Sorghum halepense); details: for Plant response rating, Johnsongrass: scale 0 to 100, 0 no effect, 100 complete control
Summary of the method: as §1

[7] = tested on: lambsquarters (Chenopodium album); details: for Plant response rating, Lambsquarters: scale 0 to 100, 0 no effect, 100 complete control
Summary of the method: as §1

[8] = tested on: morningglory (Ipomoea coccinea); details: for Plant response rating, Morningglory: scale 0 to 100, 0 no effect, 100 complete control
Summary of the method: as §1

[9] = tested on: nutsedge, yellow (yellow nutsedge, Cyperus esculentus); details: for Plant response rating, Nutsedge, Yellow: scale 0 to 100, 0 no effect, 100 complete control
Summary of the method: as §1

[10] = tested on: oilseed rape (Brassica napus); details: for Plant response rating, Oilseed Rape: scale 0 to 100, 0 no effect, 100 complete control
Summary of the method: as §1

[11] = tested on: ragweed (common ragweed, Ambrosia elatior); details: for Plant response rating, Ragweed: scale 0 to 100, 0 no effect, 100 complete control
Summary of the method: as §1

[12] = tested on: ryegrass, Italian (Italian ryegrass, Lolium multiflorum); details: for Plant response rating, Ryegrass, Italian: scale 0 to 100, 0 no effect, 100 complete control
Summary of the method: as §1

soybean (Glycine max) = details: for Plant response rating, Soybean: scale 0 to 100, 0 no effect, 100 complete control
Summary of the method: as §1

[13] = tested on: velvetleaf (Abutilon theophrasti); details: for Plant response rating, Velvetleaf: scale 0 to 100, 0 no effect, 100 complete control
Summary of the method: as §1

[14] = tested on: waterhemp (common waterhemp, Amaranthus rudis); details: for Plant response rating, Waterhemp: scale 0 to 100, 0 no effect, 100 complete control
Summary of the method: as §1

[15] = tested on: wheat (winter wheat, Triticum aestivum); details: for Plant response rating, Wheat: scale 0 to 100, 0 no effect, 100 complete control
Summary of the method: as §1

[16] = 31 g ai/ha, 0 is no effect, 100 is complete control

Compound: CN1CC(c2cc(F)cc(F)c2)C(C(=O)Nc2ccc(F)c(F)c2F)C1=O (centres unmarked) [Compound 646]
- Plant response rating (scale of 0 to 100), Galium [1, 16]: 90
- Plant response rating, Galium ([1]; 62 g ai/ha): 90
- Plant response rating, Galium ([1]; 125 g ai/ha): 90
- Plant response rating, Galium ([1]; 250 g ai/ha): 100
- Plant response rating (scale of 0 to 100), Barnyardgrass [2, 16]: 90
- Plant response rating, Barnyardgrass ([2]; 62 g ai/ha): 95
- Plant response rating, Barnyardgrass ([2]; 125 g ai/ha): 98
- Plant response rating, Barnyardgrass ([2]; 250 g ai/ha): 98
- Plant response rating (scale of 0 to 100), Blackgrass [3, 16]: 80
- Plant response rating, Blackgrass ([3]; 62 g ai/ha): 80
- Plant response rating, Blackgrass ([3]; 125 g ai/ha): 85
- Plant response rating, Blackgrass ([3]; 250 g ai/ha): 98
- Plant response rating (scale of 0 to 100), Corn (corn (Zea mays); [16]): 35
- Plant response rating, Corn (corn (Zea mays); 62 g ai/ha): 45
- Plant response rating, Corn (corn (Zea mays); 125 g ai/ha): 65
- Plant response rating, Corn (corn (Zea mays); 250 g ai/ha): 75
- Plant response rating (scale of 0 to 100), Crabgrass, Large [4, 16]: 95
- Plant response rating, Crabgrass, Large ([4]; 62 g ai/ha): 95
- Plant response rating, Crabgrass, Large ([4]; 125 g ai/ha): 98
- Plant response rating, Crabgrass, Large ([4]; 250 g ai/ha): 100
- Plant response rating (scale of 0 to 100), Foxtail, Giant [5, 16]: 95
- Plant response rating, Foxtail, Giant ([5]; 62 g ai/ha): 95
- Plant response rating, Foxtail, Giant ([5]; 125 g ai/ha): 95
- Plant response rating, Foxtail, Giant ([5]; 250 g ai/ha): 98
- Plant response rating (scale of 0 to 100), Johnsongrass [6, 16]: 35
- Plant response rating, Johnsongrass ([6]; 62 g ai/ha): 40
- Plant response rating, Johnsongrass ([6]; 125 g ai/ha): 85
- Plant response rating, Johnsongrass ([6]; 250 g ai/ha): 90
- Plant response rating (scale of 0 to 100), Lambsquarters [7, 16]: 40
- Plant response rating, Lambsquarters ([7]; 62 g ai/ha): 60
- Plant response rating, Lambsquarters ([7]; 125 g ai/ha): 75
- Plant response rating, Lambsquarters ([7]; 250 g ai/ha): 80
- Plant response rating (scale of 0 to 100), Morningglory [8, 16]: 0
- Plant response rating, Morningglory ([8]; 62 g ai/ha): 0
- Plant response rating, Morningglory ([8]; 125 g ai/ha): 0
- Plant response rating, Morningglory ([8]; 250 g ai/ha): 10
- Plant response rating (scale of 0 to 100), Nutsedge, Yellow [9, 16]: 0
- Plant response rating, Nutsedge, Yellow ([9]; 62 g ai/ha): 0
- Plant response rating, Nutsedge, Yellow ([9]; 125 g ai/ha): 0
- Plant response rating, Nutsedge, Yellow ([9]; 250 g ai/ha): 35
- Plant response rating (scale of 0 to 100), Oilseed Rape [10, 16]: 15
- Plant response rating, Oilseed Rape ([10]; 62 g ai/ha): 80
- Plant response rating, Oilseed Rape ([10]; 125 g ai/ha): 85
- Plant response rating, Oilseed Rape ([10]; 250 g ai/ha): 90
- Plant response rating (scale of 0 to 100), Ragweed [11, 16]: 20
- Plant response rating, Ragweed ([11]; 62 g ai/ha): 30
- Plant response rating, Ragweed ([11]; 125 g ai/ha): 60
- Plant response rating, Ragweed ([11]; 250 g ai/ha): 70
- Plant response rating (scale of 0 to 100), Ryegrass, Italian [12, 16]: 30
- Plant response rating, Ryegrass, Italian ([12]; 62 g ai/ha): 20
- Plant response rating, Ryegrass, Italian ([12]; 125 g ai/ha): 80
- Plant response rating, Ryegrass, Italian ([12]; 250 g ai/ha): 90
- Plant response rating (scale of 0 to 100), Soybean (soybean (Glycine max); [16]): 0
- Plant response rating, Soybean (soybean (Glycine max); 62 g ai/ha): 0
- Plant response rating, Soybean (soybean (Glycine max); 125 g ai/ha): 10
- Plant response rating, Soybean (soybean (Glycine max); 250 g ai/ha): 0
- Plant response rating (scale of 0 to 100), Velvetleaf [13, 16]: 15
- Plant response rating, Velvetleaf ([13]; 62 g ai/ha): 25
- Plant response rating, Velvetleaf ([13]; 125 g ai/ha): 55
- Plant response rating, Velvetleaf ([13]; 250 g ai/ha): 60
- Plant response rating (scale of 0 to 100), Waterhemp [14, 16]: 65
- Plant response rating, Waterhemp ([14]; 62 g ai/ha): 60
- Plant response rating, Waterhemp ([14]; 125 g ai/ha): 75
- Plant response rating, Waterhemp ([14]; 250 g ai/ha): 85
- Plant response rating (scale of 0 to 100), Wheat [15, 16]: 35
- Plant response rating, Wheat ([15]; 62 g ai/ha): 80
- Plant response rating, Wheat ([15]; 125 g ai/ha): 85
- Plant response rating, Wheat ([15]; 250 g ai/ha): 90
